In brackets after ≈: the same amount, converted by molar mass.
Assays:
[1] = Aggregation property of the compound in ammonium acetate buffer at pH 7.6 assessed as light scattering intensity counts at 100 uM in absence of Triton X-100 by dynamic light scattering method; assay type: physicochemical; settings: pH 7.6, 100 µM
[2] = Aggregation property of the compound in water at pH 7 assessed as particle size at 100 uM in absence of Triton X-100 by dynamic light scattering method; assay type: physicochemical; settings: buffer, pH 7, 100 µM
[3] = system: Mycobacterium tuberculosis; assay: Inhibition of Mycobacterium tuberculosis shikimate kinase assessed as reduction in S3P production at <50 uM pre-incubated for 30 mins before ATP and shikimate substrate addition by LC-MS assay
[4] = Aggregation property of the compound in water at pH 7 assessed as light scattering intensity counts at 100 uM in presence of Triton X-100 by dynamic light scattering method; assay type: physicochemical; settings: buffer, pH 7, 100 µM
[5] = Aggregation property of the compound in water at pH 7 assessed as light scattering intensity counts at 100 uM in absence of Triton X-100 by dynamic light scattering method; assay type: physicochemical; settings: buffer, pH 7, 100 µM
[6] = Aggregation property of the compound in ammonium acetate buffer at pH 7.6 assessed as light scattering intensity counts at 100 uM in presence of Triton X-100 by dynamic light scattering method; assay type: physicochemical; settings: pH 7.6, 100 µM
[7] = Aggregation property of the compound in ammonium acetate buffer at pH 7.6 assessed as particle size at 100 uM in absence of Triton X-100 by dynamic light scattering method; assay type: physicochemical; settings: pH 7.6, 100 µM
[8] = Aggregation property of the compound in water at pH 7 assessed as particle size at 100 uM in presence of Triton X-100 by dynamic light scattering method; assay type: physicochemical; settings: buffer, pH 7, 100 µM
[9] = system: Mycobacterium tuberculosis; assay: Antimycobacterial activity against Mycobacterium tuberculosis H37Rv; assay type: functional
[10] = Aggregation property of the compound in ammonium acetate buffer at pH 7.6 assessed as particle size at 100 uM in presence of Triton X-100 by dynamic light scattering method; assay type: physicochemical; settings: pH 7.6, 100 µM

## CCc1cccc2sc(N(CCCn3ccnc3)C(=O)/C=C/c3cccs3)nc12
[1]
  Activity: 400 kCounts
[2]
  Activity: 3823 nm
[3]
  inhibition: > 90%
[4]
  Activity: 270 kCounts
[5]
  Activity: 380 kCounts
[6]
  Activity: 286 kCounts
[7]
  Activity: 3776 nm
[8]
  Activity: 908 nm
[9]
  IC90: 0.83 µg/mL (≈ 1.96 µM)
[10]
  Activity: 817 nm

## Cc1ccc(C)c(-c2nnc(NC(=O)c3ccc([N+](=O)[O-])s3)o2)c1
[1]
  Activity: 240 kCounts
[2]
  Activity: 973 nm
[3]
  inhibition: > 90%
[4]
  Activity: 80 kCounts
[5]
  Activity: 237 kCounts
[6]
  Activity: 85 kCounts
[7]
  Activity: 986 nm
[8]
  Activity: 176 nm
[9]
  IC90: 3.09 µg/mL (≈ 8.97 µM)
[10]
  Activity: 151 nm

## O=C(c1cccs1)N(CCCn1ccnc1)c1nc2c(F)cc(F)cc2s1
[1]
  Activity: 321 kCounts
[2]
  Activity: 1852 nm
[3]
  inhibition: > 90%
[4]
  Activity: 142 kCounts
[5]
  Activity: 300 kCounts
[6]
  Activity: 150 kCounts
[7]
  Activity: 1934 nm
[8]
  Activity: 398 nm
[9]
  IC90: 2.38 µg/mL (≈ 5.88 µM)
[10]
  Activity: 470 nm

## Cc1ccc(-c2nnc(NC(=O)c3ccccc3Cl)o2)c(C)c1
[1]
  Activity: 270 kCounts
[2]
  Activity: 1301 nm
[3]
  inhibition: > 90%
[4]
  Activity: 95 kCounts
[5]
  Activity: 255 kCounts
[6]
  Activity: 115 kCounts
[7]
  Activity: 1321 nm
[8]
  Activity: 203 nm
[9]
  IC90: < 0.2 µg/mL
[10]
  Activity: 212 nm

## CCSc1ccc(C(=O)Nc2nnc(-c3ccc4c(c3)CCCC4)o2)cc1
[1]
  Activity: 340 kCounts
[2]
  Activity: 1921 nm
[3]
  inhibition: > 90%
[4]
  Activity: 152 kCounts
[5]
  Activity: 330 kCounts
[6]
  Activity: 158 kCounts
[7]
  Activity: 2005 nm
[8]
  Activity: 410 nm
[9]
  IC90: 1.93 µg/mL (≈ 5.09 µM)
[10]
  Activity: 480 nm

## CC(C)(C)C(=O)Nc1nnc(-c2ccc(Br)cc2)o1
[1]
  Activity: 260 kCounts
[2]
  Activity: 1192 nm
[3]
  inhibition: > 90%
[4]
  Activity: 92 kCounts
[5]
  Activity: 250 kCounts
[6]
  Activity: 100 kCounts
[7]
  Activity: 1211 nm
[8]
  Activity: 198 nm
[9]
  IC90: < 0.2 µg/mL
[10]
  Activity: 201 nm

## Cc1cc(C)c2sc(N3CCCC3)nc2c1
[1]
  Activity: 300 kCounts
[2]
  Activity: 1762 nm
[3]
  inhibition: > 90%
[4]
  Activity: 130 kCounts
[5]
  Activity: 290 kCounts
[6]
  Activity: 139 kCounts
[7]
  Activity: 1750 nm
[8]
  Activity: 343 nm
[9]
  IC90: 1.75 µg/mL (≈ 7.53 µM)
[10]
  Activity: 373 nm

## CCOc1ccc(C(=O)Nc2nnc(-c3ccc(C)cc3C)o2)cc1
[1]
  Activity: 300 kCounts
[2]
  Activity: 1583 nm
[3]
  inhibition: > 90%
[4]
  Activity: 122 kCounts
[5]
  Activity: 280 kCounts
[6]
  Activity: 123 kCounts
[7]
  Activity: 1620 nm
[8]
  Activity: 275 nm
[9]
  IC90: 1.8 µg/mL (≈ 5.34 µM)
[10]
  Activity: 354 nm

## CCCCC(=O)Nc1nnc(-c2ccc3c(c2)CCCC3)o1
[1]
  Activity: 280 kCounts
[2]
  Activity: 1324 nm
[3]
  inhibition: > 90%
[4]
  Activity: 100 kCounts
[5]
  Activity: 260 kCounts
[6]
  Activity: 131 kCounts
[7]
  Activity: 1432 nm
[8]
  Activity: 259 nm
[9]
  IC90: 3.04 µg/mL (≈ 10.2 µM)
[10]
  Activity: 255 nm
